Measurements as given in patent publication US5424290A, “Biologically active peptides and uses therefor” (Magainin Pharmaceuticals Inc., priority 1992, dated 1995).
Residues, ends and D or L forms follow the SMILES beside them.

How the values were obtained:
Format in all cases: cell-based
E. coli ATCC 25922 = test: Minimal Inhibitory Concentration, microtiter broth dilution antibacterial assay; conditions: Mueller Hinton broth, 16-20 hours at 37° C., lowest concentration giving a clear well
Description: (§1) Table I, which follows, indicates the Minimal Inhibitory Concentration (MIC) in μg/ml of Peptides (SEQ ID NO:1) through (SEQ ID NO:4), (SEQ ID NO:6) through (SEQ ID NO:13), (SEQ ID NO:16), (SEQ ID NO:20), (SEQ ID NO:21) and (SEQ ID NO:23) against S. aureus strain ATCC 25923, P. aeruginosa strain ATCC 27853, E. coli strain 25922, and Candida albicans. The procedure for the antibacterial assay is based upon the guidelines of the National Committee for Clinical Laboratory Standards, Document M7-T2, Volume 8, No. 8, 1988. Stock solutions of the peptides hereinabove mentioned are prepared at a concentration of 512 μg/ml in sterile deionized distilled water and stored at […]. Each peptide is a C-terminal amide and may or may not be acetylated at the N-terminus. An acetyl group at the N-terminus is indicated by an X. The stock peptide solution is diluted in serial dilutions (1:2) down the wells of a microtiter plate so that the final concentrations of peptides in the wells are 0.25, 0.50, 1, 2, 4, 8, 16, 32, 64, 128, and 256 μg/ml. 1-5×10^5 CFUs/ml of either S. aureus ATCC 25923, E. coli ATCC 25922, P. aeruginosa ATCC 27853, or Candida albicans were added to the wells in full strength Mueller Hinton broth (BBL 11443) from a mid-log culture. The inoculum is standardized spectrophotometrically at 600 nm and is verified by colony counts. The plates are incubated for 16-20 hours at 37° C., and the minimal inhibitory concentration (MIC) for each peptide is determined. Minimal inhibitory concentration is defined as the lowest concentration of peptide which produces a clear well in the microtiter plate.

[1] = tested on: P. aeruginosa strain ATCC 27853; test: as above; conditions: P. aeruginosa ATCC 27853; Mueller Hinton broth; 16-20 hours at 37° C.; lowest concentration giving a clear well
Description: as §1

[2] = tested on: S. aureus strain ATCC 25923; test: as above; conditions: S. aureus ATCC 25923; Mueller Hinton broth; 16-20 hours at 37° C.; lowest concentration giving a clear well
Description: as §1

Candida albicans = test: Minimal Inhibitory Concentration, microtiter broth dilution assay; conditions: Mueller Hinton broth, 16-20 hours at 37° C., lowest concentration giving a clear well
Description: as §1

CC[C@H](C)[C@H](N)C(=O)N[C@@H](CCCCN)C(=O)N[C@@H](CCCCN)C(=O)N[C@@H](Cc1ccccc1)C(=O)N[C@@H](CC(C)C)C(=O)N[C@@H](CCCCN)C(=O)N[C@@H](CCCCN)C(=O)N[C@@H](C)C(=O)N[C@@H](CCCCN)C(=O)N[C@@H](CCCCN)C(=O)N[C@@H](Cc1ccccc1)C(=O)NCC(=O)N[C@@H](CCCCN)C(=O)N[C@@H](CCCCN)C(=O)N[C@@H](Cc1ccccc1)C(=O)N[C@@H](CCCCN)C(=O)N[C@@H](CCCCN)C(=O)N[C@H](C(=O)N[C@@H](CC(C)C)C(=O)N[C@@H](CCCCN)C(=O)N[C@@H](CCCCN)C(N)=O)[C@@H](C)CC [(SEQ ID NO: 2)-NH2] (H-IKKFLKKAKKFGKKFKKILKK-NH2)
Minimal Inhibitory Concentration E. coli (E. coli ATCC 25922): 16 µg/mL
Minimal Inhibitory Concentration P. aeruginosa [1]: 8 µg/mL

CC[C@H](C)[C@H](N)C(=O)NCC(=O)N[C@@H](CCCCN)C(=O)N[C@@H](Cc1ccccc1)C(=O)N[C@@H](CC(C)C)C(=O)N[C@@H](CCCCN)C(=O)N[C@@H](CCCCN)C(=O)N[C@@H](C)C(=O)N[C@@H](CCCCN)C(=O)N[C@@H](CCCCN)C(=O)N[C@@H](Cc1ccccc1)C(=O)NCC(=O)N[C@@H](CCCCN)C(=O)N[C@@H](CCCCN)C(=O)N[C@@H](Cc1ccccc1)C(=O)N[C@@H](CCCCN)C(=O)N[C@@H](CCCCN)C(=O)N[C@@H](CCC(=O)O)C(=O)N[C@H](C(=O)N[C@@H](CCCCN)C(=O)N[C@@H](CCCCN)C(N)=O)[C@@H](C)CC [(SEQ ID NO: 3)-NH2] (H-IGKFLKKAKKFGKKFKKEIKK-NH2)
Minimal Inhibitory Concentration S. aureus [2]: 32 µg/mL
Minimal Inhibitory Concentration P. aeruginosa [1]: 16 µg/mL

CC[C@H](C)[C@H](NC(=O)CN)C(=O)NCC(=O)N[C@@H](CCCCN)C(=O)N[C@H](C(=O)N[C@@H](CC(C)C)C(=O)N[C@@H](CCCCN)C(=O)N[C@@H](CCCCN)C(=O)N[C@@H](C)C(=O)N[C@@H](CCCCN)C(=O)N[C@@H](CCCCN)C(=O)N[C@H](C(=O)NCC(=O)N[C@@H](CCCCN)C(=O)N[C@@H](C)C(=O)N[C@H](C(=O)N[C@H](C(=O)N[C@@H](CCCCN)C(=O)N[C@H](C(=O)N[C@@H](CC(C)C)C(=O)N[C@@H](CCCCN)C(=O)N[C@@H](CCCCN)C(N)=O)[C@@H](C)CC)C(C)C)[C@@H](C)CC)[C@@H](C)CC)[C@@H](C)CC [(SEQ ID NO: 4)-NH2] (H-GIGKILKKAKKIGKAIVKILKK-NH2)
Minimal Inhibitory Concentration S. aureus [2]: 16 µg/mL
Minimal Inhibitory Concentration P. aeruginosa [1]: 4 µg/mL
Minimal Inhibitory Concentration C. albicans (Candida albicans): 64 µg/mL

CC[C@H](C)[C@H](NC(=O)CN)C(=O)NCC(=O)N[C@@H](CCCCN)C(=O)N[C@@H](Cc1ccccc1)C(=O)N[C@@H](CC(C)C)C(=O)N[C@@H](CCCCN)C(=O)N[C@@H](CCCCN)C(=O)N[C@@H](C)C(=O)N[C@@H](CCCCN)C(=O)N[C@@H](CCCCN)C(=O)N[C@@H](Cc1ccccc1)C(=O)NCC(=O)N[C@@H](CCCCN)C(=O)N[C@@H](C)C(=O)N[C@@H](Cc1ccccc1)C(=O)N[C@H](C(=O)N[C@@H](CCCCN)C(=O)N[C@H](C(=O)N[C@H](C(=O)N[C@@H](CCCCN)C(=O)N[C@@H](CCCCN)C(N)=O)C(C)C)[C@@H](C)CC)C(C)C [(SEQ ID NO: 6)-NH2] (H-GIGKFLKKAKKFGKAFVKIVKK-NH2)
Minimal Inhibitory Concentration S. aureus [2]: 32 µg/mL
Minimal Inhibitory Concentration E. coli (E. coli ATCC 25922): 16 µg/mL
Minimal Inhibitory Concentration P. aeruginosa [1]: 16 µg/mL

CC[C@H](C)[C@H](NC(=O)CN)C(=O)NCC(=O)N[C@@H](CCCCN)C(=O)N[C@@H](Cc1ccccc1)C(=O)N[C@@H](CC(C)C)C(=O)N[C@@H](CCCCN)C(=O)N[C@@H](CCCCN)C(=O)N[C@@H](C)C(=O)N[C@@H](CCCCN)C(=O)N[C@@H](CCCCN)C(=O)N[C@@H](Cc1ccccc1)C(=O)NCC(=O)N[C@@H](CCCCN)C(=O)N[C@@H](C)C(=O)N[C@@H](Cc1ccccc1)C(=O)N[C@H](C(=O)N[C@@H](CCCCN)C(=O)N[C@H](C(=O)N[C@@H](CC(C)C)C(=O)N[C@@H](CCCCN)C(=O)N[C@@H](CCCCN)C(=O)N[C@@H](CCCNC(=N)N)C(N)=O)[C@@H](C)CC)C(C)C [(SEQ ID NO: 8)-NH2] (H-GIGKFLKKAKKFGKAFVKILKKR-NH2)
Minimal Inhibitory Concentration S. aureus [2]: 16 µg/mL
Minimal Inhibitory Concentration P. aeruginosa [1]: 4 µg/mL
Minimal Inhibitory Concentration C. albicans (Candida albicans): 64 µg/mL

CC[C@H](C)[C@H](NC(=O)CN)C(=O)NCC(=O)N[C@@H](CCCCN)C(=O)N[C@@H](Cc1ccccc1)C(=O)N[C@@H](CC(C)C)C(=O)N[C@@H](CCCCN)C(=O)N[C@@H](CCCCN)C(=O)N[C@@H](C)C(=O)N[C@@H](CCCCN)C(=O)N[C@@H](CCCCN)C(=O)N[C@@H](Cc1ccccc1)C(=O)NCC(=O)N[C@@H](CCCCN)C(=O)N[C@@H](C)C(=O)N[C@@H](Cc1ccccc1)C(=O)N[C@H](C(=O)N[C@@H](CCCCN)C(=O)N[C@H](C(=O)N[C@@H](CC(C)C)C(=O)N[C@@H](CCCCN)C(=O)N[C@@H](CCCCN)C(=O)N[C@@H](CC(N)=O)C(N)=O)[C@@H](C)CC)C(C)C [(SEQ ID NO: 9)-NH2] (H-GIGKFLKKAKKFGKAFVKILKKN-NH2)
Minimal Inhibitory Concentration S. aureus [2]: 64 µg/mL
Minimal Inhibitory Concentration P. aeruginosa [1]: 8 µg/mL

CC[C@H](C)[C@H](NC(=O)CNC(=O)[C@@H](N)CCSC)C(=O)NCC(=O)N[C@@H](CCCCN)C(=O)N[C@@H](Cc1ccccc1)C(=O)N[C@@H](CC(C)C)C(=O)N[C@@H](CCCCN)C(=O)N[C@@H](CCCCN)C(=O)N[C@@H](C)C(=O)N[C@@H](CCCCN)C(=O)N[C@@H](CCCCN)C(=O)N[C@@H](Cc1ccccc1)C(=O)NCC(=O)N[C@@H](CCCCN)C(=O)N[C@@H](C)C(=O)N[C@@H](Cc1ccccc1)C(=O)N[C@H](C(=O)N[C@@H](CCCCN)C(=O)N[C@H](C(=O)N[C@@H](CC(C)C)C(=O)N[C@@H](CCCCN)C(=O)N[C@@H](CCCCN)C(N)=O)[C@@H](C)CC)C(C)C [(SEQ ID NO: 11)-NH2] (H-MGIGKFLKKAKKFGKAFVKILKK-NH2)
Minimal Inhibitory Concentration S. aureus [2]: 64 µg/mL
Minimal Inhibitory Concentration C. albicans (Candida albicans): 64 µg/mL

CC[C@H](C)[C@H](NC(=O)CNC(=O)[C@H](CCCNC(=N)N)NC(=O)[C@@H](N)CCCNC(=N)N)C(=O)NCC(=O)N[C@@H](CCCCN)C(=O)N[C@@H](Cc1ccccc1)C(=O)N[C@@H](CC(C)C)C(=O)N[C@@H](CCCCN)C(=O)N[C@@H](CCCCN)C(=O)N[C@@H](C)C(=O)N[C@@H](CCCCN)C(=O)N[C@@H](CCCCN)C(=O)N[C@@H](Cc1ccccc1)C(=O)NCC(=O)N[C@@H](CCCCN)C(=O)N[C@@H](C)C(=O)N[C@@H](Cc1ccccc1)C(=O)N[C@H](C(=O)N[C@@H](CCCCN)C(=O)N[C@H](C(=O)N[C@@H](CC(C)C)C(=O)N[C@@H](CCCCN)C(=O)N[C@@H](CCCCN)C(N)=O)[C@@H](C)CC)C(C)C [(SEQ ID NO: 12)-NH2] (H-RRGIGKFLKKAKKFGKAFVKILKK-NH2)
Minimal Inhibitory Concentration P. aeruginosa [1]: 32 µg/mL
Minimal Inhibitory Concentration C. albicans (Candida albicans): 128 µg/mL

CC[C@H](C)[C@H](NC(=O)CNC(=O)[C@H](CCCNC(=N)N)NC(=O)[C@@H](N)CCCNC(=N)N)C(=O)NCC(=O)N[C@@H](CCCCN)C(=O)N[C@@H](Cc1ccccc1)C(=O)N[C@@H](CC(C)C)C(=O)N[C@@H](CCCCN)C(=O)N[C@@H](CCCCN)C(=O)N[C@@H](C)C(=O)N[C@@H](CCCCN)C(=O)N[C@@H](CCCCN)C(=O)N[C@@H](Cc1ccccc1)C(=O)NCC(=O)N[C@@H](CCCCN)C(=O)N[C@@H](C)C(=O)N[C@@H](Cc1ccccc1)C(=O)N[C@H](C(=O)N[C@@H](CCCCN)C(=O)N[C@H](C(=O)N[C@@H](CC(C)C)C(=O)N[C@@H](CCCCN)C(=O)N[C@@H](CCCCN)C(=O)NCC(N)=O)[C@@H](C)CC)C(C)C [(SEQ ID NO: 13)-NH2] (H-RRGIGKFLKKAKKFGKAFVKILKKG-NH2)
Minimal Inhibitory Concentration P. aeruginosa [1]: 4 µg/mL
Minimal Inhibitory Concentration C. albicans (Candida albicans): 64 µg/mL

CC[C@H](C)[C@H](NC(=O)CN)C(=O)NCC(=O)N[C@@H](CCCCN)C(=O)N[C@@H](Cc1ccccc1)C(=O)N[C@@H](CC(C)C)C(=O)N[C@@H](CCCCN)C(=O)N[C@@H](CCCCN)C(=O)N[C@@H](C)C(=O)N[C@@H](CCCCN)C(=O)N[C@@H](CCCCN)C(=O)N[C@@H](Cc1ccccc1)C(=O)NCC(=O)N[C@@H](CCCCN)C(=O)N[C@@H](C)C(=O)N[C@@H](Cc1ccccc1)C(=O)N[C@H](C(=O)N[C@@H](CCCCN)C(=O)N[C@H](C(=O)N[C@@H](CC(C)C)C(=O)N[C@@H](CCCCN)C(=O)N[C@@H](CCCCN)C(N)=O)[C@@H](C)CC)[C@@H](C)CC [(SEQ ID NO: 19)-NH2] (H-GIGKFLKKAKKFGKAFIKILKK-NH2)
Minimal Inhibitory Concentration S. aureus [2]: 8 µg/mL
Minimal Inhibitory Concentration P. aeruginosa [1]: 8 µg/mL
